Test: penetration into a human skin sample, topical application versus application combined with electroporation, amount determined by ELISA
Format: in vitro ADME
Excerpt: To test the effect of the device, a sample of human skin is peripherally attached to a support, with the counterelectrode of the electroporation device placed between the inner face of the skin and the support. The electrode of the electroporation device is placed in contact with the outer face of the skin sample. The case of the electroporation device is immobilized by a support. The support is placed on an orbital shaker, so that the electrode moves over the surface of the skin. The device used in this example is a BTX Gemini X2 programmable signal generator (Harvard Instruments). The electroporation treatment time is about 1 minute. It consists of 81 pulses of 10 ms each, with rest periods of 500 ms between the pulses. The polarity chosen is negative, i.e. the electrode is at a negative potential relative to the counterelectrode. On the skin, the voltage between the electrode and the counterelectrode is about 40 V. 50 μl of […] are applied before the device is placed in position (corresponding to 100 μl/cm^2). […] Results The skin is removed from the experimental system and then analysed to determine the amount of N-acetyl-3-trifluoromethyl-phenyl-(valine-glycine) which has penetrated, via an ELISA technique.

CC(=O)N(c1cccc(C(F)(F)F)c1)C(C(=O)NCC(=O)O)C(C)C (centres unmarked) [N-acetyl-3-trifluoromethyl-phenyl-(valine-glycine)]
amount that has penetrated into the skin (electroporation process (81 pulses of 10 ms, 500 ms rest, about 40 V, negative polarity) compared with topical application of an identical composition, 1% formulations 1 and 2, 100 μl/cm^2, FIG. 4): much higher | amount that has penetrated into the skin (FIG. 5) (electroporation process compared with topical application of an identical composition, FIG. 5): log higher

Source: US20250281740A1, “Electroporation process for delivering a composition comprising at least one peptide of molecular weight ranging from 500 Da to 20 kDa” (L'OREAL, priority 2021, published 2025)
